Test results from paper PMC9088073, “Discovery of 2-Phenylquinolines with Broad-Spectrum Anti-coronavirus Activity” (ACS Medicinal Chemistry Letters, 2022).
Where two headings read alike, the source gives them in different places.

What was measured:
SARS-CoV-2 = assay: microbe, parasite or virus in culture; format: cell-based
in vitro = conditions: chlorocebus sabaeus
[1] = Severe acute respiratory syndrome coronavirus 2, […], mean ± SD of duplicate experiments, read-out: Anti-SARS-CoV-2 activity EC50
[2] = Severe acute respiratory syndrome coronavirus 2, read-out: Anti-SARS-CoV-2 activity EC50, primary screening
[3] = […], mean ± SD of duplicate experiments

Compound | EC50 (SARS-CoV-2; [1]) [µM] | CC50 (in vitro) [µM] | further results
CCCOc1ccc(-c2cc(O)c3ccccc3n2)cc1 [Compound 1] | > 100 |  | Anti-SARS-CoV-2 activity EC50, primary screening (SARS-CoV-2): completely inactive
CCCOc1ccc(-c2cc(OCCN(CC)CC)c3ccccc3n2)cc1 [Compound 1a] | 6.5 ± 0.05 | 21.2 ± 4.2 | EC50 (SARS-CoV-2; [2]): 6 µM
CCCOc1ccc(-c2cc(OCCCN(C)C)c3ccccc3n2)cc1 [Compound 1b] | > 100 |  | 
CCCOc1ccc(-c2cc(OCCN(Cc3ccccc3)Cc3ccccc3)c3ccccc3n2)cc1 [Compound 1c] | > 100 |  | 
CCCOc1ccc(-c2cc(OC3CC4CCN3CC4)c3ccccc3n2)cc1 (stereo not drawn) [Compound 1d] | > 100 |  | 
CCCOc1ccc(-c2cc(OCc3ccccn3)c3ccccc3n2)cc1 [Compound 1e] | > 100 |  | 
CCCOc1ccc(-c2cc(OCCN3CCc4cc(OC)c(OC)cc4C3)c3ccccc3n2)cc1 [Compound 1g] | > 100 |  | 
CCCOc1ccc(-c2cc(OCCn3cccc3)c3ccccc3n2)cc1 [Compound 1h] | > 100 |  | 
CCCOc1ccc(-c2cc(OCCN(CC)CC)c3c(OC)cccc3n2)cc1 [Compound 2a] | > 100 |  | 
CCCOc1ccc(-c2cc(OCCCN(C)C)c3cc(OC)ccc3n2)cc1 [Compound 3b] | > 100 |  | 
CCCOc1ccc(-c2cc(OCCN3CCc4cc(OC)c(OC)cc4C3)c3ccc(OC)cc3n2)cc1 [Compound 4g] | > 40 |  | 
CCCOc1ccc(-c2cc(OCCN3CCCC3)c3cccc(OC)c3n2)cc1 [Compound 5j] | > 100 | 30.8 ± 0.1 | 
CCCOc1ccc(-c2cc(OCCN(CC)CC)c3c(OC)cc(OC)cc3n2)cc1 [Compound 6a] | > 100 | 6.71 ± 3.5 | 
CCCOc1ccc(-c2cc(OCCN3CCCC3)c3c(OC)cc(OC)cc3n2)cc1 [Compound 6j] | > 100 | 16.1 ± 17 | 
CCCOc1ccc(-c2cc(OCCN3CCc4cc(OC)ccc4C3)c3c(OC)cc(OC)cc3n2)cc1 [Compound 6m, 5,7-Dimethoxy-4-[2-(6-methoxy-3,4-dihydroisoquinolin-2(1H)-yl)ethoxy]-2-(4-propoxyphenyl)quinoline] | > 100 | > 100 | Anti-SARS-CoV-2 activity EC50 (SARS-CoV-2; [3]): devoid of any activity
CCCOc1ccc(-c2cc(OCCN3CCc4ccccc4C3)c3c(OC)cc(OC)cc3n2)cc1 [Compound 6n, 4-[2-(3,4-Dihydroisoquinolin-2(1H)-yl)ethoxy]-5,7-dimethoxy-2-(4-propoxyphenyl)quinoline] | > 100 | > 100 | Anti-SARS-CoV-2 activity EC50 (SARS-CoV-2; [3]): devoid of any activity
CCCOc1ccc(-c2cc(OCCN3Cc4ccccc4C3)c3c(OC)cc(OC)cc3n2)cc1 [Compound 6o, 4-[2-(1,3-Dihydro-2H-isoindol-2-yl)ethoxy]-5,7-dimethoxy-2-(4-propoxyphenyl)quinoline] | > 100 | > 100 | Anti-SARS-CoV-2 activity EC50 (SARS-CoV-2; [3]): devoid of any activity
CCCOc1ccc(-c2cc(OCCN3CCCC3)c3cc(OC)c(OC)cc3n2)cc1 [Compound 8j] | 9.6 ± 2.2 | 12.9 ± 4.8 | 
CCCOc1ccc(-c2cc(OCCN(CC)CC)c3c(OC)c(OC)c(OC)cc3n2)cc1 [Compound 10a] | 8.3 ± 1.8 | 23.8 ± 8.3 | 
CCCOc1ccc(-c2cc(C(=O)NCCN(CC)CC)c3ccccc3n2)cc1 [Compound 11l] | > 100 |  | Anti-SARS-CoV-2 activity EC50 (SARS-CoV-2; [3]): loss of activity
CCN(CC)CCOc1cc(-c2ccccc2)nc2ccccc12 [Compound 12a] | > 100 | 64.7 ± 29.8 | Anti-SARS-CoV-2 activity EC50 (SARS-CoV-2; [3]): loss of activity
CCN(CC)CCOc1cc(-c2ccc(Cl)s2)nc2ccccc12 [Compound 13a] | > 100 |  | Anti-SARS-CoV-2 activity EC50 (SARS-CoV-2; [3]): loss of activity
c1ccc(-c2cc(OCCN3CCCCC3)c3ccccc3n2)nc1 [Compound 14k] | > 100 |  | Anti-SARS-CoV-2 activity EC50 (SARS-CoV-2; [3]): loss of activity
NC(=O)c1ccc(Oc2ccc(C(N)=O)cc2)cc1 [OUL-355] |  |  | EC50 (SARS-CoV-2; read-out: Anti-SARS-CoV-2 activity EC50, primary screening): > 100 µM
COc1cc(O)c2c(=O)cc(-c3ccc(OCCCN4CCN(C)CC4)c(N)c3)n(C)c2c1 [WRNA10] |  | 40 | EC50 (SARS-CoV-2; [2]): 10 µM
